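Protocol summary: plate cells (96-well), add compound at 5 concentrations, incubate 48 h, interpolate endpoints linearly. Here, GI50 denotes the concentration required for 50% inhibition of growth.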 The source made the active and inactive calls. Rule as the data show it: active = GI50 up to about 1.1 µM and inactive = higher.
Key:
Assay in all cases: growth of human tumour cells (NCI), 48 h
[1] = system: HOP-62
[2] = system: RPMI-8226
[3] = system: SK-MEL-28
[4] = system: SW-620
[5] = system: UO-31
[6] = system: SR
[7] = system: SK-OV-3
[8] = system: HOP-92
[9] = system: KM12
[10] = system: Malme-3M
[11] = system: K562
[12] = system: UACC-257
[13] = system: MDA-N
[14] = system: OVCAR-5
[15] = system: PC-3
[16] = system: NCI-H522
[17] = system: SN12C
[18] = system: SK-MEL-5
[19] = system: SF-295
[20] = system: OVCAR-3

| Structure (SMILES) | GI50 [1] | GI50 [2] | GI50 [3] | GI50 [4] | GI50 [5] | GI50 [6] | GI50 [7] | GI50 [8] | GI50 [9] | GI50 [10] | GI50 [11] | GI50 [12] | GI50 [13] | GI50 [14] | GI50 [15] | GI50 [16] | GI50 [17] | GI50 [18] | GI50 [19] | GI50 [20] |
| --- | --- | --- | --- | --- | --- | --- | --- | --- | --- | --- | --- | --- | --- | --- | --- | --- | --- | --- | --- | --- |
| CCOP1(=O)OCC2OC(n3cnc4c(N)ncnc43)C(O)C2O1.c1ccccc1 (stereo not given) | > 100 µM (inactive) | > 100 µM (inactive) | > 100 µM (inactive) | > 100 µM (inactive) | > 100 µM (inactive) | > 100 µM (inactive) | > 100 µM (inactive) | > 100 µM (inactive) | > 100 µM (inactive) | > 100 µM (inactive) | > 100 µM (inactive) | > 100 µM (inactive) | > 100 µM (inactive) | > 100 µM (inactive) | > 100 µM (inactive) | > 100 µM (inactive) | > 100 µM (inactive) | > 100 µM (inactive) | > 100 µM (inactive) | > 100 µM (inactive) |
| c1ccc2c3c([nH]c2c1)C1CCCN1CC3 (stereo not given) | > 10 µM (inactive) | > 10 µM (inactive) | > 10 µM (inactive) | > 10 µM (inactive) | > 10 µM (inactive) | > 10 µM (inactive) | > 10 µM (inactive) | > 10 µM (inactive) | > 10 µM (inactive) | > 10 µM (inactive) | > 10 µM (inactive) | > 10 µM (inactive) | > 10 µM (inactive) | > 10 µM (inactive) | > 10 µM (inactive) | > 10 µM (inactive) | > 10 µM (inactive) | > 10 µM (inactive) | > 10 µM (inactive) | > 10 µM (inactive) |
| COC(C(=O)NN)c1ccccc1 (stereo not given) | > 100 µM (inactive) | > 100 µM (inactive) | > 100 µM (inactive) | > 100 µM (inactive) | > 100 µM (inactive) | > 100 µM (inactive) | > 100 µM (inactive) | > 100 µM (inactive) | > 100 µM (inactive) | > 100 µM (inactive) | > 100 µM (inactive) | > 100 µM (inactive) | > 100 µM (inactive) | > 100 µM (inactive) | > 100 µM (inactive) | > 100 µM (inactive) | > 100 µM (inactive) | > 100 µM (inactive) | > 100 µM (inactive) | > 100 µM (inactive) |
| COc1ccc(/C=C2\CCC(CN3CCOCC3)C2=O)cc1 (stereo not given) | 10.5 µM (inactive) | 0.552 µM (active) | 3.06 µM (inactive) | 1.79 µM (inactive) | 8.45 µM (inactive) | 1.46 µM (inactive) | 16.4 µM (inactive) | 2.52 µM (inactive) | 5.65 µM (inactive) | 3.01 µM (inactive) | 1.03 µM (active) | 2.37 µM (inactive) | 2.79 µM (inactive) | 9.06 µM (inactive) | 3.15 µM (inactive) | 0.776 µM (active) | 3.83 µM (inactive) | 4.62 µM (inactive) | 17.2 µM (inactive) | 3.28 µM (inactive) |
| N=C(N)N/N=C/c1nc2sccn2c1[N+](=O)[O-] | 37.8 µM (inactive) | 82.4 µM (inactive) | > 100 µM (inactive) | 29.4 µM (inactive) | 65.3 µM (inactive) | 33.2 µM (inactive) | 52.5 µM (inactive) | 68.9 µM (inactive) | 16.6 µM (inactive) | 13.3 µM (inactive) | 18.7 µM (inactive) | 16.3 µM (inactive) | 19.6 µM (inactive) | > 100 µM (inactive) | 35.2 µM (inactive) | 21.6 µM (inactive) | 37.5 µM (inactive) | 18.7 µM (inactive) | 33.3 µM (inactive) | 17.9 µM (inactive) |
| CCN(CC)CCCn1c(=O)c2cccnc2n2c3c(=O)n(C)c(=O)n(C)c3nc12 | > 100 µM (inactive) | > 100 µM (inactive) | > 100 µM (inactive) | > 100 µM (inactive) | > 100 µM (inactive) | > 100 µM (inactive) | > 100 µM (inactive) | > 100 µM (inactive) | > 100 µM (inactive) | > 100 µM (inactive) | > 100 µM (inactive) | > 100 µM (inactive) | > 100 µM (inactive) | > 100 µM (inactive) | > 100 µM (inactive) | > 100 µM (inactive) | > 100 µM (inactive) | > 100 µM (inactive) | > 100 µM (inactive) | > 100 µM (inactive) |
| C=C1C(=O)OC2/C=C(CO)/C=C\C3OC3(C)CC(OC(=O)/C(C)=C/COC(C)=O)C12 (stereo not given) | 20 µM (inactive) | 0.716 µM (active) | 1.73 µM (inactive) | 1.37 µM (inactive) | 6.11 µM (inactive) | 0.56 µM (active) | 17.8 µM (inactive) | 2.62 µM (inactive) | 5.28 µM (inactive) | 1.77 µM (inactive) | 3.3 µM (inactive) | 2.37 µM (inactive) | 1.75 µM (inactive) | 13.9 µM (inactive) | 10 µM (inactive) | 0.692 µM (active) | 2.21 µM (inactive) | 5 µM (inactive) | 14.8 µM (inactive) | 2.46 µM (inactive) |
| CO/N=C(\C)c1ccc(Nc2c3ccccc3nc3occc23)cc1 | 1.27 µM (inactive) | 0.429 µM (active) | 1.43 µM (inactive) | 0.33 µM (active) | 2.42 µM (inactive) | 0.0373 µM (active) | 1.16 µM (inactive) | 12.9 µM (inactive) | 0.201 µM (active) | 0.313 µM (active) | 0.195 µM (active) | 14.3 µM (inactive) | 0.0855 µM (active) | 4.08 µM (inactive) | 0.527 µM (active) | < 0.0317 µM (active) | 1.4 µM (inactive) | 0.323 µM (active) | 0.207 µM (active) | 0.284 µM (active) |
| CCCC[C@H]1C(=O)O[C@H](C)[C@H](NC(=O)c2cccc(NC=O)c2OC)C(=O)O[C@@H](C)[C@@H]1OC(=O)C(C)CC.CCCC[C@H]1C(=O)O[C@H](C)[C@H](NC(=O)c2cccc(NC=O)c2OC)C(=O)O[C@@H](C)[C@@H]1OC(=O)CC(C)C (stereo not given in full) | 17.8 µM (inactive) | 10.2 µM (inactive) | 21.6 µM (inactive) | 20.3 µM (inactive) | 14.8 µM (inactive) | 14.5 µM (inactive) | 12.5 µM (inactive) | 6.98 µM (inactive) | 11.6 µM (inactive) | 15.8 µM (inactive) | 12.2 µM (inactive) | 12.1 µM (inactive) | 17.6 µM (inactive) | 22.2 µM (inactive) | 9.42 µM (inactive) | 8.51 µM (inactive) | 17.3 µM (inactive) | 12 µM (inactive) | 7.45 µM (inactive) | 10.2 µM (inactive) |
| COC(OC)(c1ccccc1)C(I)I | 28.1 µM (inactive) | 2.09 µM (inactive) | 16.1 µM (inactive) | 2.92 µM (inactive) | 16.3 µM (inactive) | 2.04 µM (inactive) | 12.1 µM (inactive) | 13.4 µM (inactive) | 16.3 µM (inactive) | 3.15 µM (inactive) | 2.58 µM (inactive) | 3.45 µM (inactive) | 7.96 µM (inactive) | 16.2 µM (inactive) | 14.2 µM (inactive) | 2.5 µM (inactive) | 20.1 µM (inactive) | 8.61 µM (inactive) | 22.8 µM (inactive) | 15.3 µM (inactive) |
| NC(CSC1(c2ccc(Cl)cc2)c2ccccc2-c2ccccc21)C(=O)O (stereo not given) | 18.7 µM (inactive) | 12.3 µM (inactive) | > 100 µM (inactive) | 42.6 µM (inactive) | 28.7 µM (inactive) | 15.1 µM (inactive) | 25.1 µM (inactive) | 20.7 µM (inactive) | 24.1 µM (inactive) | 19.6 µM (inactive) | 26.2 µM (inactive) | 15.9 µM (inactive) | > 100 µM (inactive) | 30.3 µM (inactive) | 18.3 µM (inactive) | 15.4 µM (inactive) | 19.1 µM (inactive) | 16.2 µM (inactive) | 15.3 µM (inactive) | 17.4 µM (inactive) |
| c1ccc(/N=C(/Nc2ccccc2)N2CCCC2)cc1 | > 100 µM (inactive) | > 100 µM (inactive) | > 100 µM (inactive) | > 100 µM (inactive) | > 100 µM (inactive) | > 100 µM (inactive) | > 100 µM (inactive) | > 100 µM (inactive) | > 100 µM (inactive) | > 100 µM (inactive) | > 100 µM (inactive) | > 100 µM (inactive) | > 100 µM (inactive) | > 100 µM (inactive) | 79.1 µM (inactive) | > 100 µM (inactive) | > 100 µM (inactive) | > 100 µM (inactive) | > 100 µM (inactive) | > 100 µM (inactive) |
| CC(=O)NC1C(O)C(O)C(CO)OC1n1nc(SCc2ccccc2)c(=O)[nH]c1=O (stereo not given) | > 100 µM (inactive) | > 100 µM (inactive) | > 100 µM (inactive) | > 100 µM (inactive) | > 100 µM (inactive) | > 100 µM (inactive) | > 100 µM (inactive) | > 100 µM (inactive) | > 100 µM (inactive) | > 100 µM (inactive) | > 100 µM (inactive) | > 100 µM (inactive) | > 100 µM (inactive) | > 100 µM (inactive) | > 100 µM (inactive) | > 100 µM (inactive) | > 100 µM (inactive) | > 100 µM (inactive) | > 100 µM (inactive) | > 100 µM (inactive) |
| O=c1c2c3c(sc2nc2n1N=C(c1ccc(Cl)cc1)CS2)CCCC3 | > 100 µM (inactive) | > 100 µM (inactive) | > 100 µM (inactive) | > 100 µM (inactive) | > 100 µM (inactive) | > 100 µM (inactive) | > 100 µM (inactive) | > 100 µM (inactive) | > 100 µM (inactive) | > 100 µM (inactive) | > 100 µM (inactive) | > 100 µM (inactive) | > 100 µM (inactive) | > 100 µM (inactive) | > 100 µM (inactive) | > 100 µM (inactive) | > 100 µM (inactive) | > 100 µM (inactive) | > 100 µM (inactive) | > 100 µM (inactive) |
